Experimental data: patent US20190064177A1, “INCORPORATING COMPETITIVE BINDING INFORMATION INTO MOLECULAR ARRAY ANALYSIS TO GENERATE FUNCTION NETWORKS OF INTERACTIONS” (ARIZONA BOARD OF REGENTS ON BEHALF OF ARIZONA STATE …, priority 2017, published 2019)

System: diaphorase
Experiment: fluorescently labeled diaphorase binding to peptide array with or without excess FAD
Conditions: for 1 microM FAD (array fluorescence of bound diaphorase) / 1 micro no FAD (array fluorescence of bound diaphorase): 1 micromolar labeled diaphorase; for 1 microM FAD (array fluorescence of bound diaphorase) / 10 microM FAD (array fluorescence of bound diaphorase): excess FAD present; for 1 microM FAD (array fluorescence of bound diaphorase) / 1 micro no FAD (array fluorescence of bound diaphorase) / 10 microM FAD (array fluorescence of bound diaphorase) / 10 microM no FAD (array fluorescence of bound diaphorase): 65535 is detector saturation; for 10 microM FAD (array fluorescence of bound diaphorase) / 10 microM no FAD (array fluorescence of bound diaphorase): 10 micromolar labeled diaphorase; for 1 microM noFAD/FAD / 10 microM noFAD/FAD: ratio of binding without FAD to binding with FAD; for 1 microM noFAD/FAD / Meas. ratio: 1 micromolar diaphorase; for 10 microM noFAD/FAD: 10 micromolar diaphorase; for Meas. ratio: ratio without/with FAD calculated from measured binding values
Method: Measurements were performed in which diaphorase was bound to an array of about 126,000 unique sequences. The sequences were chosen simply to cover sequence space. 16 of the natural 20 amino acids were used to make up these sequences with C, I, M and T omitted. The diaphorase was fluorescently labeled and each peptide sequence feature was scanned and fluorescence recorded on the array. Diaphorase bound tightly to some peptides and not at all to others. Two different concentrations of diaphorase were used, 1 and 10 micromolar, and the diaphorase was either bound in the presence of excess FAD or not. […] Indeed the Pearson correlation coefficient between w/ and w/o FAD was >0.97, which actually speaks to the reproducibility of this dataset. However, there are some differences as shown on the scatter plot of FIG. 1. When one takes a ratio of the binding without FAD and the binding with FAD, one finds the following top 30 ratios (Table 1): Note that all these sequences end with a GSG linker sequence. Because there are two concentrations, one can easily check for consistency. Note that 65535 is detector saturation, so one has to ignore those values. For this reason, the lower concentration is used most of the time. […] It appears that this was some kind of error and was ignored in subsequent analysis. A similar conclusion can be made with the 7th highest value. Looking at the sequences, RW or at least R or K followed by a nonpolar or aromatic amino acid at the N-terminus. This is interesting as FAD is negatively charged, though the adenine in FAD looks a bit like tryptophan (see FIG. 2).

Sequence	1 microM FAD (array fluorescence of bound diaphorase)	1 micro no FAD (array fluorescence of bound diaphorase)	10 microM FAD (array fluorescence of bound diaphorase)	10 microM no FAD (array fluorescence of bound diaphorase)	1 microM noFAD/FAD	10 microM noFAD/FAD	Meas. ratio
YSALFGLQEDGSG [array peptide with C-terminal GSG linker]	2100.75	1225.5	16872.25	8529	0.5834	0.5055	0.58
AQVAVDGFYVDGSG [array peptide with C-terminal GSG linker]	3089	2012.5	22739.5	12627	0.6515	0.5553	0.65
YWRFYANWAQLFG	–	–	–	–	–	–	2.56
PRFNWKPYGGSG [array peptide with C-terminal GSG linker]	–	–	–	–	–	–	2.44
YRYGWQKYGGSG [array peptide with C-terminal GSG linker]	–	–	–	–	–	–	2.43
WLDLGVFPYQHLGSG [array peptide with C-terminal GSG linker]	3433.25	2202	33610.5	25700.5	0.6414	0.7647	0.64
LDRLGEYQFSGSG [array peptide with C-terminal GSG linker]	1164.75	709.25	7142.5	2995.75	0.6089	0.4194	0.61
FLQFLGGSG [array peptide with C-terminal GSG linker]	–	–	–	–	–	–	0.87
AFNVWQYFEGGSG [array peptide with C-terminal GSG linker]	–	–	–	–	–	–	0.73
RLYPQGYGGSG [array peptide with C-terminal GSG linker]	4541.5	11912	61747	65535	2.623	1.061	2.62
RLQYLFKSDGSG [array peptide with C-terminal GSG linker]	1964.75	5778.25	30591	64328.25	2.941	2.103	2.94
NRKFYWNAGGSG [array peptide with C-terminal GSG linker]	–	–	–	–	–	–	2.10
SVLEGYQAVFGGSG [array peptide with C-terminal GSG linker]	2664.5	1341.5	21517.25	6065.25	0.5035	0.2819	0.50
YRFPNAQSPGGSG [array peptide with C-terminal GSG linker]	2373	6240	37721.5	65535	2.63	1.737	2.63
WRPFWKNLGGSG [array peptide with C-terminal GSG linker]	–	–	–	–	–	–	2.18
YRNAAWFSGGSG [array peptide with C-terminal GSG linker]	2926	8372.25	43282	65535	2.861	1.514	2.86
AFYGLELGGSG [array peptide with C-terminal GSG linker]	4182.5	2264.25	36729	16544	0.5414	0.4504	0.54
PRYSGQYGGSG [array peptide with C-terminal GSG linker]	3234.25	8432.75	45157.75	65535	2.607	1.451	2.61

Continued, values first:

1 microM FAD (array fluorescence of bound diaphorase)	1 micro no FAD (array fluorescence of bound diaphorase)	10 microM FAD (array fluorescence of bound diaphorase)	10 microM no FAD (array fluorescence of bound diaphorase)	1 microM noFAD/FAD	10 microM noFAD/FAD	Meas. ratio	Sequence
9011	5775	65535	32672.5	0.6409	0.4986	0.64	DLFQLVFSGSG [array peptide with C-terminal GSG linker]
4688.5	2607.5	36320	17286.5	0.5561	0.4759	0.56	YVWGLELSGGSG [array peptide with C-terminal GSG linker]
–	–	–	–	–	–	1.71	RQRYPKVSGGSG [array peptide with C-terminal GSG linker]
–	–	–	–	–	–	0.74	AWVELEYQYVFEG
4143.5	2317.75	40264.25	26253	0.5594	0.652	0.56	LLGFLGGSG [array peptide with C-terminal GSG linker]
2156.5	5654.5	31464.5	58885	2.622	1.871	2.62	WRGFKFADGGSG [array peptide with C-terminal GSG linker]
–	–	–	–	–	–	1.74	YRRPWKFRDGSG [array peptide with C-terminal GSG linker]
5147	733.25	2589.25	2522.5	0.1425	0.9742	0.14	KNRPYNKDLEDGSG [array peptide with C-terminal GSG linker]
–	–	–	–	–	–	0.70	KEDKVFGFRFDGS
–	–	–	–	–	–	0.66	PVDFGYQLKVSGS
–	–	–	–	–	–	0.70	DANLFGYFKDGGS
2474.5	1559.25	23548.25	8696.5	0.6301	0.3693	0.63	LKQLFLEGGSG [array peptide with C-terminal GSG linker]
4477	14479.75	64033.5	65535	3.234	1.023	3.23	RQAYLFGGSG [array peptide with C-terminal GSG linker]
–	–	–	–	–	–	2.54	WRLNPLQFGGSG [array peptide with C-terminal GSG linker]
2238	759	3374	2900.5	0.3391	0.8597	0.34	VERASYNLDGSG [array peptide with C-terminal GSG linker]
1435	770.5	3699	2948.5	0.5369	0.7971	0.54	LAKQNRVEDGSS (LAKQNRVEDGSG) [array peptide with C-terminal GSG linker]
